Literature values as cited in article PMC10646941 (Chemical Science, 2023).

Target: SARS-CoV-2 3C-Like Protease

For `CC(C)(C)[C@H](NC(=O)C(F)(F)F)C(=O)N1C[C@H]2[C@@H]([C@H]1C(=O)N[C@H](C#N)C[C@@H]1CCNC1=O)C2(C)C` [nirmatrelvir], the kinact/Ki is listed as 55000 M⁻¹ s⁻¹.
